From patent publication US20240010680A1, “PEPTIDE DISINFECTANT FOR PREVENTING CORONAVIRUSES” (Xiamen University, priority 2021, published 2024)
pKd: −log10 of the molar value. Where no end group is shown, it is not given here.

The substances below were run against hACE2 (Homo sapiens, UniProt Q9BYF1) (assay: Biacore T200 molecular binding (affinity analysis) of peptides on a CM5-hACE2 chip).
From the text: Embodiment 1: Testing a Binding Capacity Between Peptide1 & Peptide2 and Derivatives Thereof and hACE2 Based on a Biacore Molecular Binding System (e.g., GE Biacore T200)
Apparatus: GE Biacore T200.
Materials and reagents: Series S Sensor Chip CM5 (GE Life100530), hACE2 purified protein, Peptide1 & Peptide2 and their derivatives (See Table 1), Amine Coupling Kit (GELife100050, Phosphate-buffered saline (PBS), glycine-hydrochloric acid buffer solution (pH 2.5)).
(1) Preparing a Capture Surface and a Binding Experiment
Materials: 1-(3-Dimethylaminopropyl)-3-ethylcarbodiimide hydrochloride (EDC), N-Hydroxysuccinimide (NHS), ethanolamine (an amine coupling kit), PBS, hACE2, Series S Sensor Chip CM5.
Specific Steps: • a. The GE Biacore T200 is started, the Series S Sensor Chip CM5 is embedded into the GE Biacore T200, the PBS is degassed to obtain a degassed PBS, and the degassed PBS is used throughout the experiment; • b. The NHS, the EDC, the ethanolamine, and the hACE2 (1 mg/mL) are placed on a feeding plate of the GE Biacore T200 according to volumes indicated by the GE Biacore T200 using Eppendorf (EP) tubes in sufficient quantities; • c. A sample is injected at a flow rate of 5 μL/min, an activation of the Series S Sensor Chip CM5, amine coupling of the hACE2, and saturating an activated carboxyl group that is uncoupled with the hACE2 using the ethanolamine are sequentially performed to obtain an RUs value of the hACE2, and the RUs value is 14826.0; • d. A mobile solution (the degassed PBS) is closed, a command window is closed, and a report is served to obtain a CM5-hACE2 chip;
(2) Affinity analysis of peptides with hACE from Table 1
Materials: the PBS, the CM5-hACE2 chip, the peptides in the Table 1, and the glycine-hydrochloric acid buffer solution (pH 2.5).
Specific Steps: • a. Preparing different dilutions as samples for testing: the peptides in Table 1 to be tested at a concentration of 3 mmol/L (mM) are dissolved and sequentially diluted into different dilutions of 100 μmol/L (μM), 60 μM, 30 μM, 10 μM, 3 μM, 1 μM, 0.3 μM, and 0 using the PBS to obtain the samples. Each of the different dilutions is ensured to have a volume of no less than 400 μL and separately packaged on EP tubes. The samples are placed on a test plate of the GE Biacore T200, and the test plate is stuck in a test slot; • b. […]

Chain of hACE2 (Q9BYF1 18-805): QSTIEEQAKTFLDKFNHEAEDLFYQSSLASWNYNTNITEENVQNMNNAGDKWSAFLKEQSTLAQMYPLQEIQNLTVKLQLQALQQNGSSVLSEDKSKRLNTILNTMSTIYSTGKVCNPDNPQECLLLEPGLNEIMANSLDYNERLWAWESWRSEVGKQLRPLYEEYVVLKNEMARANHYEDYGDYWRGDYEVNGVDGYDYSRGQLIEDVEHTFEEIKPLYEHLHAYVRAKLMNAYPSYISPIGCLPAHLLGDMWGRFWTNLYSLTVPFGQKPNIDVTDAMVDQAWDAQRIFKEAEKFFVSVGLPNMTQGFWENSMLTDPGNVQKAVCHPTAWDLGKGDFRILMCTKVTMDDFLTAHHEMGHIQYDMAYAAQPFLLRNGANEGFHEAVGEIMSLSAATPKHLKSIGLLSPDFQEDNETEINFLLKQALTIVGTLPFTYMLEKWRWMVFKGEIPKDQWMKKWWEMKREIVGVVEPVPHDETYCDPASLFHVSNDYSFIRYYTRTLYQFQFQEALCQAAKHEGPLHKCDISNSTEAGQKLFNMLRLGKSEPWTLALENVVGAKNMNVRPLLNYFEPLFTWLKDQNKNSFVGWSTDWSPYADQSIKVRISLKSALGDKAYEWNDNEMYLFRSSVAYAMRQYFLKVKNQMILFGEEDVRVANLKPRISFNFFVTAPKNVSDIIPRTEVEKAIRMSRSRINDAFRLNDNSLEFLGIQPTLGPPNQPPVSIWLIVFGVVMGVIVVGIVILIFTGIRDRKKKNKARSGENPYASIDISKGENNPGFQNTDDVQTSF

Going from YRYKYL [Peptide11, YRYKYL] to YSYINK [Peptide2, YSYINK], the pKd falls from 4.22 to 4.02 (0.20 log units).

YKYRYL [Peptide1, YKYRYL] and YTYINK [Peptide22, YTYINK] are within 0.2 log units of each other in pKd: 4.30 for the first, 4.23 for the second.
